Values quoted from earlier work as cited in US5872104A, “Combinations and methods for reducing antimicrobial resistance” (Oridigm Corporation, priority 1994, dated 1999).
In brackets after ≈: the same amount, converted by molar mass. Several values for one entry are separate records, joined by “and”; a condition that tells them apart may be missing. Equal entries are not always repeated. Where two headings read alike, the source gives them in different places.

What was measured:
[1] = tested on: Staphylococcus aureus (penicillin susceptible); conditions: cited from earlier work
[2] = tested on: Haemophilus parainfluenzae; conditions: cited from earlier work
[3] = tested on: Staphylococcus aureus (penicillin resistant); conditions: cited from earlier work
[4] = tested on: Haemophilus influenzae (penicillin resistant); conditions: cited from earlier work
Streptococcus pneumoniae = conditions: in µg/mL; cited from earlier work
Bacteroides fragilis [5] = conditions: cited from earlier work
Chlamydia trachomatis = conditions: in µg/mL; cited from earlier work
[6] = tested on: Staphylococcus coagulase .phi. (β-lactamase producer); conditions: cited from earlier work
Bacteroides fragilis [7] = conditions: anaerobes; in µg/mL; cited from earlier work
Enterococcus faecium = conditions: cited from earlier work
Listeria monocytogenes [8] = conditions: in µg/mL; cited from earlier work
Nocardia asteroides = conditions: cited from earlier work
Bordetella pertussis [9] = conditions: in µg/mL; cited from earlier work
[10] = tested on: Streptococcus pyogenes (group A), erythromycin susceptible; conditions: cited from earlier work
Corynebacterium JK = conditions: cited from earlier work
[11] = tested on: Branhamella (Moraxella) catarrhalis; conditions: cited from earlier work
N. meningitidis = conditions: in µg/mL; cited from earlier work
Haemophilus ducreyi = conditions: cited from earlier work
[12] = tested on: Staphylococcus aureus (methicillin susceptible); conditions: in µg/mL; cited from earlier work
[13] = tested on: Staphylococcus coagulase .phi. (non β-lactamase producer); conditions: cited from earlier work
Haemophilus influenzae = conditions: cited from earlier work
[14] = tested on: Chlamydia pneumoniae (formerly TWAR); conditions: in µg/mL; cited from earlier work
Ureaplasma urealyticum = conditions: cited from earlier work
[15] = tested on: Staphylococcus coagulase .phi.; conditions: cited from earlier work
Mycoplasma pneumoniae [16] = conditions: cited from earlier work
Bacillus spp. = conditions: cited from earlier work
Neisseria meningitidis = conditions: cited from earlier work
Enterococcus spp. = conditions: cited from earlier work
[17] = tested on: Neisseria gonorrhoeae (non β-lactamase producer); conditions: cited from earlier work
Staphylococcus hominis = conditions: cited from earlier work
[18] = tested on: Staphylococcus aureus, methicillin susceptible; conditions: in µg/mL; cited from earlier work
Viridans streptococci = conditions: cited from earlier work
Bordetella pertussis [19] = conditions: cited from earlier work
Clostridium perfringens = conditions: anaerobes; in µg/mL; cited from earlier work
[20] = tested on: Bordetella bronchiseptica; conditions: cited from earlier work
Neisseria gonorrhoeae [21] = conditions: cited from earlier work
[22] = tested on: Haemophilus influenzae (penicillin susceptible); conditions: cited from earlier work
Neisseria gonorrhoeae [23] = conditions: in µg/mL; cited from earlier work
S. aureus = conditions: agar disc susceptibility test; cited from earlier work
[24] = tested on: Staphylococcus epidermidis; conditions: cited from earlier work
[25] = tested on: Staphylococcus haemolyticus; conditions: cited from earlier work
Mycoplasma pneumoniae [26] = conditions: in µg/mL; cited from earlier work
[27] = tested on: Streptococcus agalactactiae (group B); conditions: in µg/mL; cited from earlier work
Streptococcus agalactiae = conditions: cited from earlier work
[28] = in vivo; cited from earlier work
Listeria monocytogenes [29] = conditions: in µg/mL; cited from earlier work; remark: listed apart in the source
Moraxella catarrhalis = conditions: in µg/mL; cited from earlier work
Campylobacter pylori = conditions: cited from earlier work
Campylobacter jejuni = conditions: in µg/mL; cited from earlier work
Borrelia burgdorferi = conditions: cited from earlier work
Streptococcus pyogenes = conditions: cited from earlier work
Bordetella parapertussis = conditions: cited from earlier work
Legionella pneumophila = conditions: in µg/mL; cited from earlier work
Streptococcus spp. = conditions: cited from earlier work
Legionella spp. = conditions: cited from earlier work
Staphylococcus aureus = conditions: cited from earlier work

Q: What does the source list for CC[C@H]1OC(=O)[C@H](C)[C@@H](O[C@H]2C[C@@](C)(OC)[C@@H](O)[C@H](C)O2)[C@H](C)[C@@H](O[C@@H]2O[C@H](C)C[C@H](N(C)C)[C@H]2O)[C@](C)(O)C[C@@H](C)C(=O)[C@H](C)[C@@H](O)[C@]1(C)O [Erythromycin]?
A: MIC90 [1]: 0.5 µg/mL (≈ 0.681 µM); MIC50 ([1]; in µg/mL): 0.5 and 0.25; MIC50 [2]: 2 µg/mL (≈ 2.73 µM); MIC90 [2]: 4 µg/mL (≈ 5.45 µM); Range [2]: 0.5-8; MIC50 [3]: 0.25 µg/mL (≈ 0.341 µM); MIC90 [3]: ≥ 32 µg/mL; MIC50 [4]: 8 µg/mL (≈ 10.9 µM); MIC90 [4]: 16 µg/mL (≈ 21.8 µM); Range [4]: 8-16; MIC90 (Streptococcus pneumoniae): 0.03-1.0; MIC50 (Bacteroides fragilis [5]): 1 µg/mL (≈ 1.36 µM); MIC90 (Bacteroides fragilis [5]): 8 µg/mL (≈ 10.9 µM); Range (Bacteroides fragilis [5]): ≤0.25-16; MIC90 (Chlamydia trachomatis): 0.12-0.25; MIC90 [6]: 4 µg/mL (≈ 5.45 µM); Range [6]: 0.06-16; MIC90 (Bacteroides fragilis [7]): 4.0-32.0; MIC50 (Enterococcus faecium): 1 µg/mL (≈ 1.36 µM); MIC90 (Enterococcus faecium): ≥ 64 µg/mL; MIC90 (Listeria monocytogenes [8]): 0.5-2.0; MIC50 (Nocardia asteroides): ≥ 8 µg/mL; MIC90 (Nocardia asteroides): ≥ 8 µg/mL; MIC90 (Bordetella pertussis [9]): 0.3-1.6; MIC90 [10]: 0.03 µg/mL (≈ 0.0409 µM); MIC50 (Corynebacterium JK): 2 µg/mL (≈ 2.73 µM); MIC90 (Corynebacterium JK): ≥ 64 µg/mL; MIC50 [11]: 0.25 µg/mL (≈ 0.341 µM); MIC90 (N. meningitidis): 0.4-1.6; MIC50 (Haemophilus ducreyi): 0.004 µg/mL (≈ 0.00545 µM); MIC90 (Haemophilus ducreyi): 0.06 µg/mL (≈ 0.0818 µM); MIC50 [12]: 0.25 and 0.5; MIC90 [13]: 0.25 µg/mL (≈ 0.341 µM); Range [13]: 0.03-8; Range (Haemophilus influenzae): 0.5-8; MIC50 (Haemophilus influenzae; in µg/mL): 2 and 1; MIC90 [14]: 0.065-1.0; MIC90 (Ureaplasma urealyticum): 32 µg/mL (≈ 43.6 µM); MIC50 [15]: 0.25 µg/mL (≈ 0.341 µM); MIC90 (Mycoplasma pneumoniae [16]): ≤ 0.004 µg/mL; MIC50 (Bacillus spp.): 0.25 µg/mL (≈ 0.341 µM); MIC90 (Bacillus spp.): 2 µg/mL (≈ 2.73 µM); Range (Bacillus spp.): 0.03-2; MIC50 (Neisseria meningitidis): 1 µg/mL (≈ 1.36 µM); MIC90 (Neisseria meningitidis): 8 µg/mL (≈ 10.9 µM); Range (Neisseria meningitidis): 0.5-8; MIC50 (Enterococcus spp.): 2 µg/mL (≈ 2.73 µM); MIC90 (Enterococcus spp.): ≥ 32 µg/mL; Range [17]: 0.015-4 and 0.03-2; MIC50 (Staphylococcus hominis): ≥ 64 µg/mL; MIC90 (Staphylococcus hominis): ≥ 64 µg/mL; MIC90 [18]: 0.25-0.50; MIC90 (Viridans streptococci): 0.06 µg/mL (≈ 0.0818 µM); MIC50 (Bordetella pertussis [19]): 0.25 µg/mL (≈ 0.341 µM); MIC90 (Clostridium perfringens): 1.0; MIC50 [20]: 8 µg/mL (≈ 10.9 µM); MIC90 [20]: 32 µg/mL (≈ 43.6 µM); Range [20]: 4-32; MIC50 (Neisseria gonorrhoeae [21]): 0.25 µg/mL (≈ 0.341 µM); MIC90 (Neisseria gonorrhoeae [21]): 1 µg/mL (≈ 1.36 µM); Range (Neisseria gonorrhoeae [21]): 0.0075-8; MIC50 [22]: 8 µg/mL (≈ 10.9 µM); MIC90 [22]: 16 µg/mL (≈ 21.8 µM); Range [22]: 0.25-16; MIC90 (Neisseria gonorrhoeae [23]): 0.25-2.0; MIC90 (S. aureus): about 4 μg/ml; MIC50 [24]: ≥ 64 µg/mL; MIC90 [24]: ≥ 64 µg/mL; MIC50 [25]: ≥ 64 µg/mL; MIC90 [25]: ≥ 64 µg/mL; MIC90 (Mycoplasma pneumoniae [26]): 0.004; MIC90 [27]: 0.03-0.25; MIC50 (Streptococcus agalactiae): 0.03 µg/mL (≈ 0.0409 µM); Range (Streptococcus agalactiae): 0.03-0.25; clinical safety [28]: one of the safest antibiotics in current clinical use; MIC50 (Listeria monocytogenes [29]): 0.5 and 0.25; MIC90 (Moraxella catarrhalis): 0.25-2.0; MIC50 (Campylobacter pylori): 0.5 µg/mL (≈ 0.681 µM); Range (Campylobacter pylori): 0.25-16; MIC90 (Campylobacter jejuni): 4 and 2; MIC50 (Borrelia burgdorferi): 0.03 µg/mL (≈ 0.0409 µM); MIC90 (Borrelia burgdorferi): 0.06 µg/mL (≈ 0.0818 µM); MIC50 (Streptococcus pyogenes): 0.06 µg/mL (≈ 0.0818 µM); MIC50 (Bordetella parapertussis): 0.25 µg/mL (≈ 0.341 µM); MIC90 (Bordetella parapertussis): 0.25 µg/mL (≈ 0.341 µM); MIC90 (Legionella pneumophila): 1.0-2.0; MIC50 (Streptococcus spp.): 0.03 µg/mL (≈ 0.0409 µM); MIC90 (Streptococcus spp.): 1 µg/mL (≈ 1.36 µM); MIC90 (Legionella spp.): 0.25 µg/mL (≈ 0.341 µM); MIC50 (Staphylococcus aureus): 0.5 µg/mL (≈ 0.681 µM)
